The text below walks through data of US10696693B2, “Fused imidazole derivatives as TGF-beta inhibitors” (Rigel Pharmaceuticals, Inc., priority 2014, dated 2020).

For one assay, the system named is GDF8. As to the kind of experiment: AlphaScreen SureFire p-SMAD3 (Ser423/425) assay, GDF8-stimulated cells. The assay is classed as cell-based. The following applies: Mus musculus. The procedure, abridged: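 Lysate (5 μL) went into 384-well shallow plates with 5 μL of Reaction Buffer, Activation Buffer and AlphaScreen Acceptor bead mix. Plates were sealed, kept dark and shaken for 2 hours at room temperature. Donor beads in dilution buffer (2 μL) were added for another 1½ hours, and p-SMAD3 signal was read on a Synergy-4 or Enspire reader.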
A general note: Bead proximity is the source of the signal in Alpha formats.

The subject of a further assay is TGF-β. Briefly: AlphaScreen SureFire p-SMAD3 (Ser423/425) assay, TGF-β-stimulated cells. The assay is classed as cell-based. The note with it: Mus musculus. The procedure, abridged: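 The p-SMAD-3 (Ser423/425) SureFire assay measured phosphorylation of endogenous SMAD-3 in cell lysates. Cells were plated overnight in collagen-coated plates, exposed to three-fold serially diluted compounds for about 10 minutes, then stimulated with TGFβ. Lysates (5 μL) received acceptor bead mix for 2 hours, then donor beads for 1½ hours before AlphaScreen reading.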

Setting [1] is: MPC-11, p-SMAD3 (Ser423/425) AlphaScreen in cell lysate, MPC11, GDF8 stimulation, read-out: GDF8: inhibition of GDF8 signaling, GDF pSMAD (MPC11).
The mark [2] stands for this setting: p-SMAD3 (Ser423/425) AlphaScreen in cell lysate, MPC-11, TGF-β stimulation, read-out: TGF-β: inhibition of TGF-β signaling, TGF-β pSMAD (MPC-11).
The mark [3] stands for this setting: MPC-11, read-out: GDF8: inhibition of GDF8 signaling, GDF pSMAD (MPC11), p-SMAD3 (Ser423/425) AlphaScreen in cell lysate, GDF8 stimulation.
[4] abbreviates: MPC-11, read-out: TGF-β: inhibition of TGF-β signaling, TGF-β pSMAD (MPC-11), p-SMAD3 (Ser423/425) AlphaScreen in cell lysate, TGF-β stimulation.

pIC50: −log10 of the molar value. Where two headings read alike, the source gives them in different places.

With `Cc1cc(-c2nc3n(c2-c2ccc4ncsc4c2)CCC3)ccc1F` [Compound 173, 6-(2-(4-fluoro-3-methylphenyl)-6,7-dihydro-5H-pyrrolo[1,2-a]imidazol-3-yl)benzo[d]thiazole], the pIC50 in the assay with GDF8 (setting [1]) was over 7.30; in the assay on TGF-β (setting [2]), 7.00 to 7.30.
Take `Fc1ccc(-c2nc3n(c2-c2ccc4ncsc4c2)CCC3)cc1` [Compound 174, 6-(2-(4-fluorophenyl)-6,7-dihydro-5H-pyrrolo[1,2-a]imidazol-3-yl)benzo[d]thiazole]: the pIC50 is 7.00 to 7.30 with GDF8 (setting [3]) and 6.00 to 7.00 with TGF-β (setting [4]).
For `Fc1ccc(-c2nc3n(c2-c2ccc4[nH]ncc4c2)CCC3)cc1` [Compound 175, 5-(2-(4-fluorophenyl)-6,7-dihydro-5H-pyrrolo[1,2-a]imidazol-3-yl)-1H-indazole], the pIC50 in the assay with GDF8 (setting [3]) and in the assay on TGF-β (setting [4]) was 6.00 to 7.00 throughout.
Turning to `Fc1ccc(-c2nc3n(c2-c2ccc4cn[nH]c4c2)CCC3)cc1` [Compound 176, 6-(2-(4-fluorophenyl)-6,7-dihydro-5H-pyrrolo[1,2-a]imidazol-3-yl)-1H-indazole], the pIC50 is 6.00 to 7.00 in the assay on GDF8 (setting [3]) and under 6.00 in the assay on TGF-β (setting [4]).
Consider `Cc1cc(-c2nc3n(c2-c2ccc4cn[nH]c4c2)CCC3)ccc1F` [Compound 177, 6-(2-(4-fluoro-3-methylphenyl)-6,7-dihydro-5H-pyrrolo[1,2-a]imidazol-3-yl)-1H-indazole], for which the pIC50 was 7.00 to 7.30 with GDF8 (setting [1]) and 6.00 to 7.00 with TGF-β (setting [2]).
In the case of `Fc1ccc(-c2nc3n(c2-c2ccc4nccnc4c2)CCC3)cc1` [Compound 178, 6-(2-(4-fluorophenyl)-6,7-dihydro-5H-pyrrolo[1,2-a]imidazol-3-yl)quinoxaline], the pIC50 with GDF8 (setting [3]) was 6.00 to 7.00; in the assay on TGF-β (setting [4]) it was under 6.00.
Take `Cc1cc(-c2nc3n(c2-c2ccc4nccnc4c2)CCC3)ccc1F` [Compound 179, 6-(2-(4-fluoro-3-methylphenyl)-6,7-dihydro-5H-pyrrolo[1,2-a]imidazol-3-yl)quinoxaline]: the pIC50 with GDF8 (setting [1]) was 7.00 to 7.30; in the assay with TGF-β (setting [2]) it was 6.00 to 7.00.
Consider `Cc1cccc(-c2nc3n(c2-c2ccc4nccnc4c2)CCC3)c1` [Compound 180, 6-(2-(m-tolyl)-6,7-dihydro-5H-pyrrolo[1,2-a]imidazol-3-yl)quinoxaline], for which the pIC50 is over 7.30 in the assay on GDF8 (setting [1]) and 6.00 to 7.00 in the assay with TGF-β (setting [2]).
On to `FC(F)(F)c1cccc(-c2nc3n(c2-c2ccc4[nH]ncc4c2)CCC3)c1` [Compound 181, 5-(2-(3-(trifluoromethyl)phenyl)-6,7-dihydro-5H-pyrrolo[1,2-a]imidazol-3-yl)-1H-indazole], for which the pIC50 was 7.00 to 7.30 with GDF8 (setting [1]) and 6.00 to 7.00 in the assay with TGF-β (setting [2]).
For the molecule `FC(F)(F)c1cccc(-c2nc3n(c2-c2ccc4cn[nH]c4c2)CCC3)c1` [Compound 182, 6-(2-(3-(trifluoromethyl)phenyl)-6,7-dihydro-5H-pyrrolo[1,2-a]imidazol-3-yl)-1H-indazole], the pIC50 with GDF8 (setting [1]) was 7.00 to 7.30; with TGF-β (setting [2]), 6.00 to 7.00.
For `FC(F)(F)c1cccc(-c2nc3n(c2-c2ccc4ncsc4c2)CCC3)c1` [Compound 183, 6-(2-(3-(trifluoromethyl)phenyl)-6,7-dihydro-5H-pyrrolo[1,2-a]imidazol-3-yl)benzo[d]thiazole], the pIC50 in the assay with GDF8 (setting [1]) was 7.00 to 7.30; in the assay on TGF-β (setting [2]), 6.00 to 7.00.
In the case of `FC(F)(F)c1cccc(-c2nc3n(c2-c2ccc4nccnc4c2)CCC3)c1` [Compound 184, 6-(2-(3-(trifluoromethyl)phenyl)-6,7-dihydro-5H-pyrrolo[1,2-a]imidazol-3-yl)quinoxaline], the pIC50 in the assay with GDF8 (setting [1]) is 7.00 to 7.30; in the assay on TGF-β (setting [2]), 6.00 to 7.00.
As for `COc1cccc(-c2nc3n(c2-c2ccc4[nH]ncc4c2)CCC3)c1` [Compound 185, 5-(2-(3-methoxyphenyl)-6,7-dihydro-5H-pyrrolo[1,2-a]imidazol-3-yl)-1H-indazole], the pIC50 in the assay on GDF8 (setting [3]) and in the assay with TGF-β (setting [4]) was 6.00 to 7.00 each time.
`COc1cccc(-c2nc3n(c2-c2ccc4cn[nH]c4c2)CCC3)c1` [Compound 186, 6-(2-(3-methoxyphenyl)-6,7-dihydro-5H-pyrrolo[1,2-a]imidazol-3-yl)-1H-indazole]: the figures for the pIC50 with GDF8 (setting [3]) and with TGF-β (setting [4]) were 7.00 to 7.30 and 6.00 to 7.00, respectively.
Turning to `COc1cccc(-c2nc3n(c2-c2ccc4ncsc4c2)CCC3)c1` [Compound 187, 6-(2-(3-methoxyphenyl)-6,7-dihydro-5H-pyrrolo[1,2-a]imidazol-3-yl)benzo[d]thiazole], the pIC50 with GDF8 (setting [3]) was 7.00 to 7.30; in the assay on TGF-β (setting [4]), 6.00 to 7.00.
Regarding `COc1cccc(-c2nc3n(c2-c2ccc4nccnc4c2)CCC3)c1` [Compound 188, 6-(2-(3-methoxyphenyl)-6,7-dihydro-5H-pyrrolo[1,2-a]imidazol-3-yl)quinoxaline], the pIC50 with GDF8 (setting [3]) and in the assay with TGF-β (setting [4]) was 6.00 to 7.00 throughout.
`Clc1cccc(-c2nc3n(c2-c2ccc4[nH]ncc4c2)CCC3)c1` [Compound 189, 5-(2-(3-chlorophenyl)-6,7-dihydro-5H-pyrrolo[1,2-a]imidazol-3-yl)-1H-indazole]: the figures for the pIC50 in the assay on GDF8 (setting [3]) and in the assay with TGF-β (setting [4]) were 7.00 to 7.30 and 6.00 to 7.00, respectively.
On to `Clc1cccc(-c2nc3n(c2-c2ccc4cn[nH]c4c2)CCC3)c1` [Compound 190, 6-(2-(3-chlorophenyl)-6,7-dihydro-5H-pyrrolo[1,2-a]imidazol-3-yl)-1H-indazole], for which the pIC50 was over 7.30 in the assay with GDF8 (setting [3]) and 7.00 to 7.30 in the assay with TGF-β (setting [4]).
With `Clc1cccc(-c2nc3n(c2-c2ccc4ncsc4c2)CCC3)c1` [Compound 191, 6-(2-(3-chlorophenyl)-6,7-dihydro-5H-pyrrolo[1,2-a]imidazol-3-yl)benzo[d]thiazole], the pIC50 in the assay with GDF8 (setting [3]) is over 7.30; with TGF-β (setting [4]), 6.00 to 7.00.
For `Clc1cccc(-c2nc3n(c2-c2ccc4nccnc4c2)CCC3)c1` [Compound 192, 6-(2-(3-chlorophenyl)-6,7-dihydro-5H-pyrrolo[1,2-a]imidazol-3-yl)quinoxaline], the pIC50 with GDF8 (setting [3]) was 7.00 to 7.30; with TGF-β (setting [4]) it was 6.00 to 7.00.
Regarding `Fc1cccc(-c2nc3n(c2-c2ccc4[nH]ncc4c2)CCC3)c1` [Compound 193, 5-(2-(3-fluorophenyl)-6,7-dihydro-5H-pyrrolo[1,2-a]imidazol-3-yl)-1H-indazole], the pIC50 was 6.00 to 7.00 in the assay on GDF8 (setting [3]) and under 6.00 with TGF-β (setting [4]).
The like results for `Fc1cccc(-c2nc3n(c2-c2ccc4cn[nH]c4c2)CCC3)c1` [Compound 194, 6-(2-(3-fluorophenyl)-6,7-dihydro-5H-pyrrolo[1,2-a]imidazol-3-yl)-1H-indazole] were, in that order, 6.00 to 7.00 and under 6.00.
In the case of `Fc1cccc(-c2nc3n(c2-c2ccc4ncsc4c2)CCC3)c1` [Compound 195, 6-(2-(3-fluorophenyl)-6,7-dihydro-5H-pyrrolo[1,2-a]imidazol-3-yl)benzo[d]thiazole], the pIC50 in the assay with GDF8 (setting [3]) and in the assay with TGF-β (setting [4]) was 6.00 to 7.00 throughout.
`Fc1cccc(-c2nc3n(c2-c2ccc4nccnc4c2)CCC3)c1` [Compound 196, 6-(2-(3-fluorophenyl)-6,7-dihydro-5H-pyrrolo[1,2-a]imidazol-3-yl)quinoxaline]: the pIC50 with GDF8 (setting [3]) was 6.00 to 7.00; in the assay with TGF-β (setting [4]), under 6.00.
Take `Fc1ccccc1-c1nc2n(c1-c1ccc3[nH]ncc3c1)CCC2` [Compound 197, 5-(2-(2-fluorophenyl)-6,7-dihydro-5H-pyrrolo[1,2-a]imidazol-3-yl)-1H-indazole]: the pIC50 was 6.00 to 7.00 with GDF8 (setting [1]) and under 6.00 in the assay on TGF-β (setting [2]).
In the case of `Fc1ccccc1-c1nc2n(c1-c1ccc3cn[nH]c3c1)CCC2` [Compound 198, 6-(2-(2-fluorophenyl)-6,7-dihydro-5H-pyrrolo[1,2-a]imidazol-3-yl)-1H-indazole], the pIC50 in the assay with GDF8 (setting [1]) and with TGF-β (setting [2]) was under 6.00 in each case.
`Fc1ccccc1-c1nc2n(c1-c1ccc3ncsc3c1)CCC2` [Compound 199, 6-(2-(2-fluorophenyl)-6,7-dihydro-5H-pyrrolo[1,2-a]imidazol-3-yl)benzo[d]thiazole]: the pIC50 in the assay on GDF8 (setting [1]) and with TGF-β (setting [2]) was 6.00 to 7.00 throughout.
For the molecule `Fc1ccccc1-c1nc2n(c1-c1ccc3nccnc3c1)CCC2` [Compound 200, 6-(2-(2-fluorophenyl)-6,7-dihydro-5H-pyrrolo[1,2-a]imidazol-3-yl)quinoxaline], the figures for the pIC50 in the assay with GDF8 (setting [1]) and in the assay with TGF-β (setting [2]) were 6.00 to 7.00 and under 6.00, respectively.
In the case of `Fc1ccc(-c2nc3n(c2-c2ccc4[nH]ncc4c2)CCC3)c(F)c1` [Compound 201, 5-(2-(2,4-difluorophenyl)-6,7-dihydro-5H-pyrrolo[1,2-a]imidazol-3-yl)-1H-indazole], the pIC50 with GDF8 (setting [1]) was over 7.30; with TGF-β (setting [2]), 6.00 to 7.00.
Consider `Fc1ccc(-c2nc3n(c2-c2ccc4cn[nH]c4c2)CCC3)c(F)c1` [Compound 202, 6-(2-(2,4-difluorophenyl)-6,7-dihydro-5H-pyrrolo[1,2-a]imidazol-3-yl)-1H-indazole], for which the pIC50 is 7.00 to 7.30 with GDF8 (setting [1]) and 6.00 to 7.00 with TGF-β (setting [2]).
Regarding `Fc1ccc(-c2nc3n(c2-c2ccc4ncsc4c2)CCC3)c(F)c1` [Compound 203, 6-(2-(2,4-difluorophenyl)-6,7-dihydro-5H-pyrrolo[1,2-a]imidazol-3-yl)benzo[d]thiazole], the values for the pIC50 in the assay on GDF8 (setting [1]) and with TGF-β (setting [2]) were over 7.30 and 6.00 to 7.00, respectively.
With `Fc1ccc(-c2nc3n(c2-c2ccc4nccnc4c2)CCC3)c(F)c1` [Compound 204, 6-(2-(2,4-difluorophenyl)-6,7-dihydro-5H-pyrrolo[1,2-a]imidazol-3-yl)quinoxaline], the pIC50 in the assay with GDF8 (setting [1]) and in the assay with TGF-β (setting [2]) was 6.00 to 7.00 throughout.
